Test [1] has as its target NACHT, LRR and PYD domains-containing protein 3 (Mus musculus) (UniProt Q8R4B8). Briefly: In vivo inhibition of NLRP3 in LPS-induced C57BL/6JRi mouse neuroinflammation model assessed as reduction in IL-1beta level in CSF at 0.2 mg/kg, po pretreated with LPS for 23 hrs followed by compound addition for 1 hr prior to second dose of LPS addition and measured after 4 hrs. The test is classed as functional, organism-based. The note with it: time 5.0 hrs.

Test [2] shares this target. Briefly: In vivo inhibition of NLRP3 in LPS-induced C57BL/6JRi mouse neuroinflammation model assessed as reduction in IL-1beta level in CSF at 0.02 mg/kg, po pretreated with LPS for 23 hrs followed by compound addition for 1 hr prior to second dose of LPS addition and measured after 4 hrs. Format: functional, organism-based. As to conditions: time 5.0 hrs.
In test [3] the target is T1, Muscarinic acetylcholine receptor M2 (Homo sapiens) (UniProt P08172).
T1 sequence (whole entry): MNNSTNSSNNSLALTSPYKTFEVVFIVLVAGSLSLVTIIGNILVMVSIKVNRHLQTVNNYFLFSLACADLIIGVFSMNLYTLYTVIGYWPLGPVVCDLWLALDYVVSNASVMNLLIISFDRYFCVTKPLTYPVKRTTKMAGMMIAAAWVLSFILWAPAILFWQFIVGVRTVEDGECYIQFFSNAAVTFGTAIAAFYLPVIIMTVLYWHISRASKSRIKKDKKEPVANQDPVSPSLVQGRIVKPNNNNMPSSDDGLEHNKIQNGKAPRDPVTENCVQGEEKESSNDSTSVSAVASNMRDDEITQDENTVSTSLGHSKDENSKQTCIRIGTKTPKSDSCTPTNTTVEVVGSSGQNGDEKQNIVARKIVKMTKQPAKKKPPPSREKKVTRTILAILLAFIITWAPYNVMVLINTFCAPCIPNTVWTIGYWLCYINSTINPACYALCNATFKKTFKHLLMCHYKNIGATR
Briefly: Binding affinity to M2 muscarinic receptor (unknown origin).

Test [4] has as its target NACHT, LRR and PYD domains-containing protein 3 (Mus musculus) (UniProt Q8R4B8). Briefly: In vivo inhibition of NLRP3 in LPS/ATP-induced C57BL/6JRi mouse peritonitis model assessed as reduction in IL-1beta level at 3 mg/kg, po preadministered with compound for 3 hrs followed by LPS stimulation for 2 hrs and measured 15 mins after ATP addition. Format: functional, organism-based. As to conditions: time 315.0 min.

For test [5] the target is unchanged. Briefly: In vivo inhibition of NLRP3 in LPS-induced C57BL/6JRi mouse neuroinflammation model assessed as reduction in blood IL-1beta level at 0.02 mg/kg, po pretreated with LPS for 23 hrs followed by compound addition for 1 hr prior to second dose of LPS addition and measured after 4 hrs. Format: functional, organism-based. The note with it: time 5.0 hrs.
The target is the same in test [6]. Description: In vivo inhibition of NLRP3 in LPS/ATP-induced C57BL/6JRi mouse peritonitis model assessed as reduction in IL-1beta level at 2 mg/kg, po preadministered with compound for 3 hrs followed by LPS stimulation for 2 hrs and measured 15 mins after ATP addition. The test is classed as functional, organism-based. The note with it: time 315.0 min.
For test [7] the target is unchanged. Briefly: In vivo inhibition of NLRP3 in LPS/ATP-induced C57BL/6JRi mouse peritonitis model assessed as reduction in IL-1beta level at 0.05 mg/kg, po preadministered with compound for 3 hrs followed by LPS stimulation for 2 hrs and measured 15 mins after ATP addition. Format: functional, organism-based. As to conditions: time 315.0 min.
Test [8] deals with NLR family CARD domain-containing protein 4 (Homo sapiens) (UniProt Q9NPP4). Briefly: Inhibition of NLRC4 activation overexpressed in human THP-1 cells assessed as reduction in IL-1beta secretion preincubated for 1 hr followed by PrgI protein addition and measured after 20 hrs. The test is classed as cell-based.
For test [9], the target named is NACHT, LRR and PYD domains-containing protein 3 (Mus musculus) (UniProt Q8R4B8). Briefly: In vivo inhibition of NLRP3 in LPS/ATP-induced C57BL/6JRi mouse peritonitis model assessed as reduction in IL-1beta level at 0.3 mg/kg, po preadministered with compound for 3 hrs followed by LPS stimulation for 2 hrs and measured 15 mins after ATP addition. Format: functional, organism-based. The note with it: time 315.0 min.

Test [10] deals with Sodium-dependent serotonin transporter (Homo sapiens) (UniProt P31645). Description: Binding affinity to 5HTT (unknown origin).
Test [11] addresses NACHT, LRR and PYD domains-containing protein 3 (Mus musculus) (UniProt Q8R4B8). Description: In vivo inhibition of NLRP3 in LPS-induced C57BL/6JRi mouse neuroinflammation model assessed as reduction in blood IL-1beta level at 2 mg/kg, po pretreated with LPS for 23 hrs followed by compound addition for 1 hr prior to second dose of LPS addition and measured after 4 hrs. The note with it: time 5.0 hrs. Format: functional, organism-based.

For test [12] the target is unchanged. Description: In vivo inhibition of NLRP3 in LPS-induced C57BL/6JRi mouse neuroinflammation model assessed as reduction in IL-1beta level in CSF at 2 mg/kg, po pretreated with LPS for 23 hrs followed by compound addition for 1 hr prior to second dose of LPS addition and measured after 4 hrs. The test is classed as functional, organism-based. The note with it: time 5.0 hrs.

Test [13] deals with NACHT, LRR and PYD domains-containing protein 3 (Mus musculus, UniProt Q8R4B8). Briefly: Inhibition of NLRP3 inflammasome in C57BL/6J mouse whole blood assessed as reduction in LPS/ATP induced IL-1beta secretion preincubated for 60 mins followed by LPS addition for 4 hrs prior to ATP addition for 30 mins by HTRF method. The test is classed as tissue-based.
For test [14], the target named is NACHT, LRR and PYD domains-containing protein 3 (Mus musculus) (UniProt Q8R4B8). Briefly: In vivo inhibition of NLRP3 in LPS/ATP-induced C57BL/6JRi mouse peritonitis model assessed as reduction in IL-1beta level at 0.0083 mg/kg, po preadministered with compound for 3 hrs followed by LPS stimulation for 2 hrs and measured 15 mins after ATP addition. The test is classed as functional, organism-based. The note with it: time 315.0 min.

In a further test the target is T2, Pyrin (Homo sapiens, UniProt O15553).
T2 sequence (O15553 whole entry): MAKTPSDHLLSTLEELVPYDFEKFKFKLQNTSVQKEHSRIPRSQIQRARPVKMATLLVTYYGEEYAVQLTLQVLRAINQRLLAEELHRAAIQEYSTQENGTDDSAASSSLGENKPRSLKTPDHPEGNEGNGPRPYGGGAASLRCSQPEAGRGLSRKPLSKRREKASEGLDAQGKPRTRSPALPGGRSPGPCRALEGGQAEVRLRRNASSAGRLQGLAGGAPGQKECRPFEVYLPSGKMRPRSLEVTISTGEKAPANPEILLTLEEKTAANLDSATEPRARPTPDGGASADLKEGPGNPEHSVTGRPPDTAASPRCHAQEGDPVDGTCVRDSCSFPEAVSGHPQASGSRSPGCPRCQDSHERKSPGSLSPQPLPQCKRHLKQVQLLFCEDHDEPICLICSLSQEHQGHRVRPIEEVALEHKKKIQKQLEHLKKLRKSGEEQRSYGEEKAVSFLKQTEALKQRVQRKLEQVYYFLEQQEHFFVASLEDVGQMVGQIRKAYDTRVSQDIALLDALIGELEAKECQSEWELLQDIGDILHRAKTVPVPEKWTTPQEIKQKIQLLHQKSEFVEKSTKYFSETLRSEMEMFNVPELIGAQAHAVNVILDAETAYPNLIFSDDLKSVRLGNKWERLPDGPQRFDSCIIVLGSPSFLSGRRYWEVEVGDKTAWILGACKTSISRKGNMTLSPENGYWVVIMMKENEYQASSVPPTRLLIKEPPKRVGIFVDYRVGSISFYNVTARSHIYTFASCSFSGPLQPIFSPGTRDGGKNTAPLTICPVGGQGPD
Briefly: Inhibition of pyrin inflammasome activation in human U-937 cells assessed as IL-1beta secretion preincubated for 1 hr followed by BAA473 addition and measured after 4 hrs. The test is classed as cell-based.

Test [15] has as its target NACHT, LRR and PYD domains-containing protein 3 (Mus musculus) (UniProt Q8R4B8). Description: In vivo inhibition of NLRP3 in LPS-induced C57BL/6JRi mouse neuroinflammation model assessed as reduction in blood IL-1beta level at 0.2 mg/kg, po pretreated with LPS for 23 hrs followed by compound addition for 1 hr prior to second dose of LPS addition and measured after 4 hrs. The test is classed as functional, organism-based. The note with it: time 5.0 hrs.

These results are taken from ChEMBL document CHEMBL6074670, “Discovery of NP3-253, a Potent Brain Penetrant Inhibitor of the NLRP3 Inflammasome” (J Med Chem, 2024).

The structures appear in SMILES notation. Activity calls are given as the source filed them. The calls are words filed in the database; no cut-off is given here.

Sequence of NACHT, LRR and PYD domains-containing protein 3 (Mus musculus) (Q8R4B8 whole entry, the tested form may be a part): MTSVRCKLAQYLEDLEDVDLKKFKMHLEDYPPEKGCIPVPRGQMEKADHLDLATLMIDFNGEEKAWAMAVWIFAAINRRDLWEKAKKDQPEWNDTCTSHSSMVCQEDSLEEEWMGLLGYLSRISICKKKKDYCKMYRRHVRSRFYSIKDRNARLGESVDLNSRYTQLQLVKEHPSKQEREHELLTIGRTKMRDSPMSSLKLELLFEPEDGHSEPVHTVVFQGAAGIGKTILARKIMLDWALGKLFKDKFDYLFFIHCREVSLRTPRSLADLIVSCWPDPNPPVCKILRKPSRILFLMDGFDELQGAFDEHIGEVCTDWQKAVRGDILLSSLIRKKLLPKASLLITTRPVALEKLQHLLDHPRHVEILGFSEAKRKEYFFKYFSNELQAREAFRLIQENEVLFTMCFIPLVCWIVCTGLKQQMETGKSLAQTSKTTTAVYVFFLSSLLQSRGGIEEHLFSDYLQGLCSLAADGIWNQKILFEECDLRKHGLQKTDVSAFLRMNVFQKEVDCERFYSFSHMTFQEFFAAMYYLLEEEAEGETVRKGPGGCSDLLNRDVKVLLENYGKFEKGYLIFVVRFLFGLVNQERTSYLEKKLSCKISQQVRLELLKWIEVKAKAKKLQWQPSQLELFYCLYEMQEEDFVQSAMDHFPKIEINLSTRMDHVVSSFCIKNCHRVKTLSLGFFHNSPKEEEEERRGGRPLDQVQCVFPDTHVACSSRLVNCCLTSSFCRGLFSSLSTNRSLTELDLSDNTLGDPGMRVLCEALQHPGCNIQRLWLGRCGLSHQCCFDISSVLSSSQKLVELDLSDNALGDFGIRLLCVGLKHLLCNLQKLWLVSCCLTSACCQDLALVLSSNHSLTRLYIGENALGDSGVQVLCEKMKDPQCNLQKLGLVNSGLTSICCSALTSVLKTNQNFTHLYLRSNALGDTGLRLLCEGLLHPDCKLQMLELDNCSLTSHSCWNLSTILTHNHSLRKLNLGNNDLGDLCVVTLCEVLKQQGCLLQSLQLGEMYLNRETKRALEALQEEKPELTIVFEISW
Sequence of NACHT, LRR and PYD domains-containing protein 3 (Q8R4B8 whole entry, the tested form may be a part): as above
Sequence of Sodium-dependent serotonin transporter (Homo sapiens) (P31645 whole entry, looked up, the tested form may be a part): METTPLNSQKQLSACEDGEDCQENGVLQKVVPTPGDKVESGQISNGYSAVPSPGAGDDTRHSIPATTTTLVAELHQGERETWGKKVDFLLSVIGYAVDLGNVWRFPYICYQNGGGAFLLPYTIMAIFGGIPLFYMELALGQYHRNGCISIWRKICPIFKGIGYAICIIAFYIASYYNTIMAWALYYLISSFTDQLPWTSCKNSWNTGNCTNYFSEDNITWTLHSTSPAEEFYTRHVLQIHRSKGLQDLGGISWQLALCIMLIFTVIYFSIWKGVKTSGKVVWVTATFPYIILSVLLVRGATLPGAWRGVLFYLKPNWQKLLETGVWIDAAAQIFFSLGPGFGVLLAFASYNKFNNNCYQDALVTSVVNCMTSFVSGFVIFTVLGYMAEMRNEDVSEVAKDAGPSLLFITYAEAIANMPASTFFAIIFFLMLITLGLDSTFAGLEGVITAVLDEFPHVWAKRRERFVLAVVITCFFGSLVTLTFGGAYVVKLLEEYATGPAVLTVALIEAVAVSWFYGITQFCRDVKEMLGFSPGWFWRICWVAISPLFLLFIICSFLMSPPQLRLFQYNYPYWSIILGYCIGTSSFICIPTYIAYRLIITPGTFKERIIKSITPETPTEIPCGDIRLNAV
Sequence of NLR family CARD domain-containing protein 4 (Homo sapiens) (Q9NPP4 whole entry, the tested form may be a part): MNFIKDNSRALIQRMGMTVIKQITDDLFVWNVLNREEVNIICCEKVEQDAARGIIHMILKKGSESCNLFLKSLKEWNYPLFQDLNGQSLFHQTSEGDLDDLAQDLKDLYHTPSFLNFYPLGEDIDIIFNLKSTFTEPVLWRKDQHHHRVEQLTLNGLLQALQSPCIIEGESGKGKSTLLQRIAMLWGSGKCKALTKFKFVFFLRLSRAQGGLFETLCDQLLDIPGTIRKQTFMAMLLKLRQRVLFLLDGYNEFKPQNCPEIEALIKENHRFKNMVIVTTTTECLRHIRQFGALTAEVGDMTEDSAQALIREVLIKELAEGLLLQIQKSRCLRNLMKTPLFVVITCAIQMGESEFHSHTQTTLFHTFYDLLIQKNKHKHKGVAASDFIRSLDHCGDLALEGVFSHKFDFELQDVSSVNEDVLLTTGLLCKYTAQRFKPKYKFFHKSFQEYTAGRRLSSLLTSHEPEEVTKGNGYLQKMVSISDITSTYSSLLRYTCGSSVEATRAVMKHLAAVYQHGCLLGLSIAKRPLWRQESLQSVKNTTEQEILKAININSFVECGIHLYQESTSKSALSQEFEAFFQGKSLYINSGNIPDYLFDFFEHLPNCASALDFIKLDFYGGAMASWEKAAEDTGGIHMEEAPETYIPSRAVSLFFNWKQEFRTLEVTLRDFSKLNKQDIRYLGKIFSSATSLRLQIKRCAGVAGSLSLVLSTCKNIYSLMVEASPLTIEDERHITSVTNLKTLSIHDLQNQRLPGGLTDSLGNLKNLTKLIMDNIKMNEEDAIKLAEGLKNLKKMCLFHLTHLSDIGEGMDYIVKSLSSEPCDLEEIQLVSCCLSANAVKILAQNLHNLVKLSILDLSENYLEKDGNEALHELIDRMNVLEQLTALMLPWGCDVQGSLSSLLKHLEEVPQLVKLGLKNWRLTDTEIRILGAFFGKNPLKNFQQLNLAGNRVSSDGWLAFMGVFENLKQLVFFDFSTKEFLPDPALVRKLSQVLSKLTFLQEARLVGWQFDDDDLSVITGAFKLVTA

Regarding `CCN1CCC[C@@H](Nc2ccc(-c3c(C)cc(C(F)(F)F)cc3O)nn2)C1`, the inhibition – broadly, the drop in the measured response relative to a control, in per cent – in test [1] was 51.6%; in test [2], -2%; in test [4] it was 99.4%; in test [5] it was 42.5%; in [6], 99.6%; in test [7] it was 43.9%. Also, the inhibition in test [9] stood at 98.3%; in test [11], 94.3%; in test [12] it was 96.5%; in test [14] it was 16%; in test [15], 87.7%. In addition, the outcome in test [3] and in [10] was Active. In test [8], the inhibition entry is “inactive”. Moreover, the IC50 – broadly, the concentration at which inhibition is half-maximal – in [13] was 2.5 nM; on Pyrin it was greater than 33000 nM.
`Cc1cc(C)c(-c2ccc(N[C@@H]3CCCN(C)C3)nn2)c(O)c1`: the inhibition in [4] worked out at 99%. For the same compound, in test [13], the IC50 was 5.8 nM.
For the compound `Cc1cc(C(F)(F)F)cc(O)c1-c1ccc(N[C@@H]2CCCN(CCO)C2)nn1`, the inhibition in test [4] amounted to 99.6%. Moreover, the IC50 in test [13] amounted to 2.1 nM.
As for `Cc1cc(C(F)(F)F)cc(O)c1-c1ccc(N[C@@H]2CCCN(C)C2)nn1`, the inhibition in test [4] is 99.5%.
